Laboratory results as given in the supplement of paper PMC10307832.

Experiments:
Test in all cases: relative viability (nuclei count vs DMSO), 5 days (fraction); higher = more cells survive
Ispinesib + Foretinib = compound: Cc1ccc(C(=O)N(CCCN)[C@@H](c2nc3cc(Cl)ccc3c(=O)n2Cc2ccccc2)C(C)C)cc1 [Ispinesib] + COc1cc2c(Oc3ccc(NC(=O)C4(C(=O)Nc5ccc(F)cc5)CC4)cc3F)ccnc2cc1OCCCN1CCOCC1 [Foretinib] (partner 0.25 µM)
Procedure, shortened: (§1)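 Lung cancer cell lines were seeded in 1536-well plates and dosed by pin tool the next day, with either a single drug or a fixed anchor-drug dose combined with five library-drug doses (not always all listed) spaced in √10 steps. Five days later, one step fixed the cells and stained their nuclei (final 0.05% Triton X-100, 1% formaldehyde, 1 ug/ml Hoechst), and nuclei were counted on 4× images. Relative viability is the nuclei count in treated wells divided by the count in vehicle wells, and each value is the median of duplicate plates.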

Ispinesib + Olaparib = compound: Cc1ccc(C(=O)N(CCCN)[C@@H](c2nc3cc(Cl)ccc3c(=O)n2Cc2ccccc2)C(C)C)cc1 [Ispinesib] + O=C(c1cc(Cc2n[nH]c(=O)c3ccccc23)ccc1F)N1CCN(C(=O)C2CC2)CC1 [Olaparib] (partner 8 µM)
Procedure, shortened: as §1

Linsitinib + Olaparib = compound: C[C@]1(O)C[C@@H](c2nc(-c3ccc4ccc(-c5ccccc5)nc4c3)c3c(N)nccn32)C1 [Linsitinib] + O=C(c1cc(Cc2n[nH]c(=O)c3ccccc23)ccc1F)N1CCN(C(=O)C2CC2)CC1 [Olaparib] (partner 8 µM)
Procedure, shortened: as §1

Linsitinib + OSI-027 = compound: C[C@]1(O)C[C@@H](c2nc(-c3ccc4ccc(-c5ccccc5)nc4c3)c3c(N)nccn32)C1 [Linsitinib] + COc1cccc2cc(-c3nc([C@H]4CC[C@H](C(=O)O)CC4)n4ncnc(N)c34)[nH]c12 [OSI-027] (partner 0.5 µM)
Procedure, shortened: as §1

| Cell Line | relative viability (Ispinesib + Foretinib; first compound 0.001 µM) | relative viability (Ispinesib + Foretinib; first compound 0.003162 µM) | relative viability (Ispinesib + Foretinib; first compound 0.01 µM) | relative viability (Ispinesib + Foretinib; first compound 0.03162 µM) | relative viability (Ispinesib + Foretinib; first compound 0.1 µM) | relative viability (Ispinesib + Olaparib; first compound 0.001 µM) | relative viability (Ispinesib + Olaparib; first compound 0.003162 µM) | relative viability (Ispinesib + Olaparib; first compound 0.01 µM) | relative viability (Ispinesib + Olaparib; first compound 0.03162 µM) | relative viability (Ispinesib + Olaparib; first compound 0.1 µM) | relative viability (Linsitinib + Olaparib; first compound 0.01 µM) | relative viability (Linsitinib + Olaparib; first compound 0.03162 µM) | relative viability (Linsitinib + Olaparib; first compound 0.1 µM) | relative viability (Linsitinib + Olaparib; first compound 0.3162 µM) | relative viability (Linsitinib + Olaparib; first compound 1 µM) | relative viability (Linsitinib + OSI-027; first compound 0.01 µM) | relative viability (Linsitinib + OSI-027; first compound 0.03162 µM) | relative viability (Linsitinib + OSI-027; first compound 0.1 µM) | relative viability (Linsitinib + OSI-027; first compound 0.3162 µM) | relative viability (Linsitinib + OSI-027; first compound 1 µM) |
| --- | --- | --- | --- | --- | --- | --- | --- | --- | --- | --- | --- | --- | --- | --- | --- | --- | --- | --- | --- | --- |
| NCI-H661 | 0.943 | 1.03 | 0.988 | 0.71 | 0.27 | 0.737 | 0.848 | 0.805 | 0.505 | 0.255 | 0.665 | 0.666 | 0.751 | 0.749 | 0.744 | 0.732 | 0.651 | 0.652 | 0.6 | 0.516 |
| CAL-12T | 1.2 | 1.06 | 1.31 | 0.938 | 0.197 | 0.754 | 0.791 | 0.896 | 0.768 | 0.217 | 0.79 | 0.899 | 0.784 | 0.689 | 0.713 | 0.625 | 0.688 | 0.679 | 0.351 | 0.297 |
| HARA | 1.18 | 0.931 | 0.976 | 1.04 | 0.132 | 1.03 | 0.83 | 0.592 | 0.707 | 0.316 | 0.631 | 0.396 | 0.69 |  | 0.935 | 0.505 | 0.502 | 0.637 |  | 0.232 |
| NCI-H596 | 0.87 | 0.859 | 0.791 | 0.795 | 0.434 | 0.652 | 0.629 | 0.638 | 0.671 | 0.571 | 0.736 | 0.614 | 0.677 | 0.66 | 0.604 | 0.7 | 0.694 | 0.802 | 0.674 | 0.448 |
| LU99A | 0.835 | 0.858 | 0.814 | 0.55 | 0.428 | 0.249 | 0.264 | 0.235 | 0.234 | 0.245 | 0.3 | 0.195 | 0.266 |  | 0.255 | 0.32 | 0.314 | 0.299 | 0.245 | 0.24 |
| LC-2-ad | 0.892 | 0.863 | 1.09 | 0.63 | 0.361 | 0.728 | 0.728 | 0.711 | 0.816 | 0.293 | 0.621 | 0.751 | 0.73 | 0.625 | 0.685 | 0.803 | 0.827 | 0.684 | 0.414 | 0.422 |
| NCI-H1650 | 1.27 | 1.44 | 1.12 | 0.305 | 0.273 | 0.953 | 0.743 | 0.82 | 0.701 | 0.195 | 0.871 | 0.954 | 0.883 | 0.735 | 0.523 | 0.576 | 0.598 | 0.527 | 0.242 | 0.222 |
| NCI-H1915 | 1.15 | 1.16 | 1.33 | 1.03 | 0.425 | 0.262 | 0.266 | 0.298 | 0.258 | 0.209 | 0.238 | 0.221 | 0.243 | 0.225 | 0.237 | 0.646 | 0.678 | 0.623 | 0.515 | 0.392 |
| ABC-1 | 1.37 | 1.35 | 1.11 | 0.507 | 0.382 | 1.04 | 0.955 | 0.838 |  | 0.41 | 0.859 | 1.04 | 0.785 | 1.09 | 0.626 | 0.502 | 0.447 | 0.504 | 0.38 | 0.217 |
| HCC-44 |  |  |  |  |  | 0.984 | 0.993 | 1.03 | 1.06 | 0.938 | 1.01 | 0.924 | 1 | 0.858 | 0.916 | 0.503 | 0.41 | 0.465 | 0.181 | 0.232 |
| HCC-78 | 0.558 | 0.567 | 0.542 | 0.525 | 0.559 | 0.876 | 0.82 | 0.887 | 0.704 | 0.59 |  | 1 | 0.706 | 0.916 | 0.506 | 0.377 | 0.379 | 0.31 | 0.377 | 0.347 |
| LXF-289 | 0.911 | 0.978 | 1.09 | 0.894 | 0.895 | 1.07 | 1.21 | 1.44 | 1.05 | 0.95 | 1.11 | 1.13 | 1.17 | 0.797 | 1.05 | 0.769 | 0.757 | 0.795 |  | 0.515 |
| 201T | 1.26 | 1.24 | 1.08 | 0.962 | 0.214 | 0.859 | 0.905 | 0.958 | 0.822 | 0.79 | 0.874 | 0.61 | 0.84 | 0.676 | 0.862 | 0.808 | 0.799 | 1.01 | 0.829 | 0.342 |
| NCI-H1734 | 0.809 | 0.859 | 1.08 | 0.827 | 0.343 | 0.613 | 0.658 | 0.64 | 0.675 | 0.449 | 0.592 | 0.625 | 0.593 | 0.57 | 0.535 | 0.737 | 0.469 | 0.634 | 0.504 | 0.293 |
| NCI-H1623 | 0.929 | 1.03 | 0.887 | 0.823 | 0.62 |  |  |  |  |  |  |  |  |  |  | 0.408 | 0.432 | 0.398 |  | 0.285 |
| NCI-H2126 | 1.27 | 1.35 | 1.39 | 1.14 | 1.03 | 0.986 | 0.963 | 0.981 | 1.08 | 0.85 | 0.962 | 0.957 | 0.934 | 0.779 | 0.862 | 0.671 | 0.909 | 0.596 | 0.478 | 0.358 |
| LOU-NH91 | 0.917 | 0.879 | 0.957 | 0.829 | 0.472 | 0.929 | 0.915 | 0.969 | 0.906 | 0.369 | 0.911 | 0.841 | 0.941 | 0.857 | 0.903 | 0.714 | 0.704 | 0.7 | 0.712 | 0.527 |
